# “Also recorded” adds a separate entry of the source. *1 amine or outer side, *2 acyl side, *3 side chain or, on linkers, in order; H or OH if unused. Where a SMILES comes first, the peptide text is derived from it. Bridges are numbered along the chain shown (N, C = ends). [ ]: non-standard residue; d: D form. The star is where a group is joined. X1 = CC[C@H](C)[C@@H](N[*:1])[C@@H](O)CC(=O)O[C@H](C(=O)[C@H](C)C(=O)[*:2])C(C)C; NMeY = CN[C@@H](Cc1ccc(O)cc1)C(=O)O; dNMeL = CN[C@H](CC(C)C)C(=O)O; Pyruvoyl = CC(=O)C(=O)*
# Legend:
# [1] = system: HeLa-APL-R cells stably transfected with eEF1A2-GFP; test: Antiproliferative activity in HeLa-APL-R stably transfected with eEF1A2-GFP; type: cell-based, human; settings: 72 h, MTT
# Procedure: (§1) (A) HeLa and HeLa-APL-R cells were stably transfected with an expression vector encoding for eEF1A2-GFP fusion protein. Clones homogeneously expressing the GFP were selected. The levels of expression of eEF1A2 were analyzed by Western blot using specific antibodies. The position of the endogenous and the GFP-fusion proteins are indicated. […] Levels of expression attained after transfection were similar to the endogenous levels. […] Concentration-response curves were performed at 72 h. Cell growth was determined by the MTT method and expressed as percentage of control cell survival.
# (§2) For transfection and selection of cell clones, HeLa and HeLa-APL-R cells were seeded in 24 well plates at 40% confluence and allowed to stand for 24 hours at 37 °C and 5% CO2. Before transfection, the culture medium was changed to Opti-MEM (Life Technologies, Carlsbad, CA, USA). Plasmids encoding eEF1A2-GFP were incubated with Lipofectamine (Life Technologies, Carlsbad, CA, USA) under the recommendations of the manufacturer and added to the cell medium. After 24 h incubation at 37 °C and 5% CO2, the culture medium was replaced by the standard DMEM supplemented with 2 mg/ml of G-418 for the selection of clones expressing the exogenous gene. Clones were further selected following the expression of the GFP-fused protein through fluorescence microscopy.
# [2] = system: HGC27 gastric carcinoma cells; test: Cell growth inhibition (MTT, 72 h), HGC27; type: cell-based; settings: parental HGC27, 72 h
# Procedure: HeLa cervix adenocarcinoma (ATCC CCL-2), K-562 chronic myelogenous leukemia (ATCC CCL-243), NCI-H460 lung cancer (ATCC HTB-177) and HGC27 gastric cancer (ATCC CRL-2506) cells were obtained from ATCC (Manassas, VA, USA) and cultured following standard procedures. Viability assays were performed utilizing 3-(4,5-dimethylthiazol-2-yl)-2,5-diphenyltetrazolium bromide (MTT) according to methods described elsewhere[46].
# [3] = system: human haploid cells with eEF1A2 knock-out; settings: CRISPR/CAS9, versus parental cells, data not shown, results not conclusive
# [4] = system: eEF1A2 in HeLa protein extract; test: DARTS assay (subtilisin digestion of HeLa protein extract); type: binding, human; settings: plitidepsin 1 h, subtilisin 30 min, room temperature, Western blot
# Procedure: (A) Saturation binding curve. […] (B) Dissociation kinetics of [14C]-plitidepsin from eEF1A2.
# Each sample was then digested with subtilisin for 30 min at room temperature.
# Protein extracts from HeLa cells were obtained by treating them with lysis buffer (see above) and kept on ice for 15 min. Cell extracts were cleared by centrifugation at 14,000 × g for 15 min at 4 °C. […] Extracts were digested with the indicated concentrations of Subtilisin (EC 3.4.21.62) for 30 min at RT. […] Quantitation of the eEF1A2 bands was performed with the Image Lab v5.2.1 software (Bio-Rad, Hercules, CA, USA).
# [5] = system: NCI-H460-APL-R non-small cell lung cancer cells (plitidepsin-resistant); test: Cell growth inhibition (MTT, 72 h), NCI-H460-APL-R; type: cell-based; settings: highest concentration tested 100 nM
# [6] = system: sphingosine kinase-1 (SK1); test: Sphingosine kinase-1 activity in tumor cells; type: cell-based; settings: preliminary, data not shown
# [7] = system: JNK and p38 MAPK, oxidative stress in tumor cells; settings: cited from earlier work
# Excerpt: (§3) Plitidepsin (Aplidin) is a cyclic depsipeptide originally isolated from the marine tunicate Aplidium albicans. […] Plitidpesin has recently completed a pivotal phase III clinical trial for multiple myeloma (clinicaltrials.gov identifier: NCT01102426) that has shown a statistically significant 35% reduction in the risk of progression or death over the comparator (p = 0.0054). This study has met its primary endpoint. In tumor cells, the compound induces a potent oxidative stres ...
# [8] = system: multiple myeloma patients; settings: phase III, p = 0.0054, ref clinicaltrials.gov NCT01102426; cited from earlier work
# Excerpt: as §3
# [9] = two different COMPARE analyses, no reference given; cited from earlier work
# Excerpt: as §3
# [10] = system: HeLa-APL-R cervical cancer cells (plitidepsin-resistant); design: method as in PMID 15365569; settings: 72 h, Fig. 1A, reported as previously described; cited from earlier work
# [11] = biological target: eEF1A2 purified from rabbit muscle (Oryctolagus cuniculus, UniProt Q71V39); test: biochemical
# Sequence of eEF1A2 purified from rabbit muscle (Q71V39 whole entry): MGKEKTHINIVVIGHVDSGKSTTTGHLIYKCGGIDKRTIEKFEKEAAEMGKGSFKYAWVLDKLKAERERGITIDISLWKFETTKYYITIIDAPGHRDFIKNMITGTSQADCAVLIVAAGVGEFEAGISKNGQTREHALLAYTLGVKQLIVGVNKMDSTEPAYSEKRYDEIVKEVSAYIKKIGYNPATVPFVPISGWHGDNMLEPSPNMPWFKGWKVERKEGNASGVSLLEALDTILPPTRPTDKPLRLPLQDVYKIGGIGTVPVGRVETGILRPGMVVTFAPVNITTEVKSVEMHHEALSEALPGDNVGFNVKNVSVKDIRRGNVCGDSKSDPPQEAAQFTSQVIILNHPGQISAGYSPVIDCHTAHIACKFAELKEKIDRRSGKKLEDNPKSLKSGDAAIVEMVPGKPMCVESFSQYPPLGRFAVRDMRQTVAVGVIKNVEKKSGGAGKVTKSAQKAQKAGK
# Procedure: (A) Saturation binding curve. Protein and radioligand were incubated for 1 h at room temperature and samples were processed as described in the text. […] The experiment was performed as described in the text, and the experimental points were fitted to a single exponential decay equation by non-linear regression. […] Extracts were then digested with the indicated concentrations of subtilisin for 30 min at room temperature. Samples were resolved by SDS-PAGE and the degradation of eEF1A2 analyzed by Western blot; quantitation of the bands from the DARTS assay was performed with the ImageJ software.
# At the selected times after this last addition, 400 μL of each sample were withdrawn and processed as above.
# [12] = system: subcellular and chromatographic fractions of K-562 cell lysate; test: Binding of [14C]-plitidepsin to K-562 lysate fractions
# Procedure: Figure 4 Identification of the plitidepsin-binding protein in a K-562 cells lysate. […] In the horizontal axis “P” and “S” mean “pellet” and “supernatant”, respectively, with the figure aside denoting the relative centrifugal force (in thousands of g) used to obtain such fraction. Data (in dpm per mg of protein) represent the mean of three independent samples with error bars showing S.D. * means p < 0.05. (C) Anion-exchange chromatography on DEAE, flow rate 5 mL/min. (D) Cation-exchange chromatography on SP, flow rate 2.5 mL/min. (E) Size exclusion chromatography on Superdex 200, flow rate 4 mL/min. Representative fractions (4-mL) from each portion of the eluates were analyzed for their binding to [^14C]-plitidepsin in the presence (grey bars, non-specific binding) or absence (black bars, total binding) of a 20-fold excess of unlabeled drug. Only fractions showing significant specific binding to the radioligand were pooled and progressed to the next chromatographic step. In all cases absorbance is expressed in mAU and conductivity in mS/cm.
# The rest of the peptides detected in this material corresponded to fragments whose sequences are common to both isoforms, thus discarding the presence of any other protein.
# After 1 h incubation at room temperature 400 μL of each tube were withdrawn and processed as described above.
# [13] = system: signaling in HeLa cells overexpressing eEF1A2-GFP; test: Signaling (Western blot) in HeLa overexpressing eEF1A2-GFP; type: cell-based, human; settings: plitidepsin 450 nM
# Procedure: as §1, §2
compound,measurement,setting,value
"CC[C@H](C)[C@H]1NC(=O)[C@@H](NC(=O)[C@@H](CC(C)C)N(C)C(=O)[C@@H]2CCCN2C(=O)C(C)=O)[C@@H](C)OC(=O)[C@H](Cc2ccc(OC)cc2)N(C)C(=O)[C@@H]2CCCN2C(=O)[C@H](CC(C)C)NC(=O)[C@@H](C)C(=O)[C@H](C(C)C)OC(=O)C[C@@H]1O [plitidepsin, Plitidepsin] (Pyruvoyl-P[dNMeL]T[X1]LP[NMeY](Me); ester 3-C (inferred))",sensitivity to plitidepsin after ectopic expression of eEF1A2,[1],partially recovered sensitivity; also recorded: restored the sensitivity
same,IC50,[2],0.9 nM
same,resistance of eEF1A2 knock-out cells to plitidepsin,[3],increased resistance
same,protection of eEF1A2 from digestion by subtilisin,[4],protected eEF1A2 from digestion by subtilisin in a concentration-dependent manner
same,effect on cell growth,[5],did not cause any effect on cell growth
same,SK1 activity in tumor cells,[6],decrease the activity of this enzyme in tumor cells
same,activation of JNK and p38,[7],rapid and sustained activation
same,oxidative stress,[7],potent oxidative stress
same,reduction in the risk of progression or death over the comparator,[8],35%
same,similarity with other antitumor agents,[9],no similarity with any other antitumor agent
same,IC50,[10],> 100 nM
same,koff,[11]; read-out: kOFF (first-order rate constant of dissociation),0.0019 ± 8e-07 s⁻¹
same,residence time,"[11]; read-out: target residence time, from dissociation kinetics (kOFF), rabbit eEF1A2",8.8 min
same,proteins detected as capable of binding plitidepsin,"[12]; K-562 lysate, MALDI-TOF/TOF identification",both isoforms of eEF1A are the only proteins
same,specific binding by size-exclusion peaks,"[12]; Superdex 200 peaks, fourth peak eluting at 80 min, ca. 50 kDa",only the fourth one
same,alteration in the signaling elicited by plitidepsin,[13],did not show any alteration in the signaling

# Source: publication PMC5054363 (Scientific Reports, 2016)
